Series [1] relates to Candida albicans. Put plainly: Therapeutic effect on experimental candidosis in mice. Conditions: intravenously infected, twice administration, total of dosages. It counts as in vivo.
Series [2] relates to mice. Kind of series: Acute toxicity in mice. Conditions: intravenous, subdermal, intraperitoneal or oral, 4000 mg/kg. The class given is in vivo.
Series [3] is described as follows: Solubility. It counts as physicochemical. From the text:
The physico-chemical properties of TAN-950A (monosodium salt) obtained in Example 2 described later are as follows.

Series [4] has as its system Escherichia coli NIH JC-2. Kind of series: Paper disc agar diffusion, growth-inhibition zone. The class given is cell-based. Conditions: NIHJC2, monosodium salt, disc 1000 μg/ml, medium C, 37 °C, 20 h, 0 = no zone, read-out: Diameter of growth-inhibition zone. Here is the method:
(§1) Paper discs (8 mm. in diameter, manufactured by Toyo Seisakusho) immersed in an aqueous solution of the antibiotic TAN-950A (monosodium salt) (1000 μg/ml) were put on agar plates seeded with the test organism, and these agar plates were incubated at a given […] for a given period of time. In the Table, "0" means no formation of the growth-inhibition zone. Culture media employed are as follows:
(§2) C: Trypticase soy agar (Becton Dickinson Co., USA)
A general note: A growth-free zone around the sample is the usual read-out of agar diffusion tests.

In series [5] the test system is Bacillus subtilis PCI 219. Put plainly: Paper disc agar diffusion, growth-inhibition zone. It counts as cell-based. To be noted: PCI219, monosodium salt, disc 1000 μg/ml, medium C, 37 °C, 20 h, 0 = no zone, read-out: Diameter of growth-inhibition zone. Here is the method:
as §1, §2

Series [6] relates to Candida albicans. Put plainly: TLC-bioautography using Candida albicans. The class given is cell-based. To be noted: aqueous layer of culture filtrate; cellulose f, acetonitrile:water (3:1).
The subject of series [7] is Candida albicans IFO 0583. Put plainly: Paper disc agar diffusion, growth-inhibition zone. It counts as cell-based. To be noted: IFO0583, 48 h, monosodium salt, disc 1000 μg/ml, 28 °C, read-out: Diameter of growth-inhibition zone. Here is the method: as §1
(§3) B: Yeast nitrogen base agar medium (Difco Laboratories, USA) supplemented with L-asparagine (0.17%)
(§4) D: Yeast nitrogen base agar medium (Difco Laboratories, USA) supplemented with glucose (2%) and agar (1.5%)

Series [8] concerns Candida utilis IFO 0619. Put plainly: Paper disc agar diffusion, growth-inhibition zone. The class given is cell-based. Conditions: monosodium salt, disc 1000 μg/ml, 28 °C, 48 h, 0 = no zone. The method, then:
as §1, §3, §4

Series [9] relates to Penicillium chrysogenum IFO 4626. Put plainly: Paper disc agar diffusion, growth-inhibition zone. It counts as cell-based. Conditions: IFO4626, monosodium salt, disc 1000 μg/ml, 28 °C, read-out: Diameter of growth-inhibition zone. The method, then: as §1, §3, §4
Series [10] relates to Aspergillus fumigatus IFO 6344. Kind of series: Paper disc agar diffusion, growth-inhibition zone. The class given is cell-based. Conditions: IFO6344, 48 h, monosodium salt, disc 1000 μg/ml, 28 °C, read-out: Diameter of growth-inhibition zone. Here is the method: as §1, §3, §4
Series [11] relates to Cryptococcus neoformans IFO 0410. Kind of series: Paper disc agar diffusion, growth-inhibition zone. It counts as cell-based. Conditions: IFO0410, 48 h, monosodium salt, disc 1000 μg/ml, 28 °C, read-out: Diameter of growth-inhibition zone. Here is the method:
as §1, §3, §4

Series [12] deals with Filobasidium uniguttulatum IFO 0699. Kind of series: Paper disc agar diffusion, growth-inhibition zone. It counts as cell-based. Conditions: IFO0699, 48 h, monosodium salt, disc 1000 μg/ml, 28 °C, read-out: Diameter of growth-inhibition zone. The method, then: as §1, §3, §4
The subject of series [13] is Torulopsis glabrata IFO 1085. Put plainly: Paper disc agar diffusion, growth-inhibition zone. It counts as cell-based. To be noted: Nakaseomyces glabratus, IFO1085, 48 h, monosodium salt, disc 1000 μg/ml, 28 °C, read-out: Diameter of growth-inhibition zone. The method, then:
as §1, §3, §4

Series [14] relates to Saccharomyces cerevisiae IFO 0209. Kind of series: Paper disc agar diffusion, growth-inhibition zone. Conditions: IFO0209, 48 h, monosodium salt, disc 1000 μg/ml, 28 °C, read-out: Diameter of growth-inhibition zone. The class given is cell-based. Here is the method:
as §1, §3, §4

The test system of series [15] is Candida tropicalis IFO0006. Kind of series: Paper disc agar diffusion, growth-inhibition zone. The class given is cell-based. To be noted: monosodium salt, disc 1000 μg/ml, medium D, 28 °C, 48 h, read-out: Diameter of growth-inhibition zone. The method, then:
as §1, §4

Series [16] has as its system Candida parakrusei IFO0640. Kind of series: Paper disc agar diffusion, growth-inhibition zone. To be noted: monosodium salt, disc 1000 μg/ml, medium D, 28 °C, 48 h, read-out: Diameter of growth-inhibition zone. The class given is cell-based. The method, then:
as §1, §4

Series [17] has as its system Microsporum gypseum IFO 6075. Put plainly: Paper disc agar diffusion, growth-inhibition zone. It counts as cell-based. To be noted: Nannizzia gypsea, IFO6075; monosodium salt, disc 1000 μg/ml; medium D, 28 °C, 72 h; read-out: Diameter of growth-inhibition zone. The method, then:
as §1, §4

The subject of series [18] is Candida parapsilosis IFO1396. Kind of series: Paper disc agar diffusion, growth-inhibition zone. The class given is cell-based. To be noted: Lodderomyces parapsilosis, monosodium salt, disc 1000 μg/ml, medium D, 28 °C, 48 h, read-out: Diameter of growth-inhibition zone. Here is the method:
as §1, §4

The subject of series [19] is Trichophyton rubrum IFO 5467. Kind of series: Paper disc agar diffusion, growth-inhibition zone. Conditions: IFO5467, monosodium salt, disc 1000 μg/ml, 28 °C, read-out: Diameter of growth-inhibition zone. The class given is cell-based. Here is the method:
as §1
A: Sabouraud's dextrose agar medium
as §4

From patent US4895864A, “Antibiotic TAN-950A, its production and use” (Takeda Chemical Industries, Ltd., priority 1987, dated 1990) come the findings set out here.

Structures can show the parent of a compound that is named as a salt. Where two headings read alike, the source gives them in different places.

On to `N[C@@H](Cc1c[nH]oc1=O)C(=O)O` [TAN-950A monosodium salt], for which the ED50 (in general, the midpoint of the dose-response relation) worked out at 105 mg/kg in series [1] (oral) and 40 mg/kg in series [1] (sc, subcutaneous). In addition, the acute toxicity result in [2] is listed as “No acute toxicity”. For the same molecule, the Solubility result was “Sparingly soluble” in series [3] (acetone); “Sparingly soluble” in series [3] (chloroform); “Soluble” in series [3] (dimethyl sulfoxide); “Sparingly soluble” in [3] (ethyl acetate); “Soluble” in series [3] (methanol); “Soluble” in series [3] (water).

Regarding `N[C@@H](Cc1c[nH]oc1=O)C(=O)O` [TAN-950A], the zone of inhibition (commonly the size of the clear area around the sample on an inoculated plate) at 1000 µg/mL in series [4] turned out to be 0 mm; in [5], 0 mm; in series [7] (medium B), 21 mm; in [7] (medium D), 34 mm; in [8] (Williopsis jadinii, IFO0619, medium B, read-out: Diameter of growth-inhibition zone), 0 mm; in [9] (medium B, 66 h, 0 = no zone) it was 0 mm. Further, the zone of inhibition at 1000 µg/mL in series [9] (medium D, 72 h) came out at 35 mm; in series [10] (medium B, 0 = no zone) it was 0 mm; in series [10] (medium D) it was 57 mm; in series [11] (medium B, 0 = no zone), 0 mm; in series [11] (medium D), 27 mm; in series [12] (medium B), 23 mm. For the same molecule, the zone of inhibition at 1000 µg/mL in [12] (medium D) came to 35 mm; in [13] (medium B), 23 mm; in series [13] (medium D), 26 mm; in [14] (medium B), 24 mm; in series [14] (medium D), 25 mm; in series [15], 25 mm. Besides, the zone of inhibition at 1000 µg/mL turned out to be 43 mm in [16]; 41 mm in series [17]; 40 mm in series [18]; 0 mm in series [19] (medium A, 48 h, 0 = no zone); 47 mm in series [19] (medium D, 72 h). The “inhibition zone in TLC-bioautography” value in [6] is given as “inhibition zones”. The “Diameter of growth-inhibition zone” value in series [8] (medium D) worked out at 0 mm.
